This passage reports IC50 results from patent publication US8044069B2, “Compounds as calcium channel blockers” (Abbott Laboratories, priority 2008, dated 2011).

Sequence of human Cav2.2 (Q00975 whole entry): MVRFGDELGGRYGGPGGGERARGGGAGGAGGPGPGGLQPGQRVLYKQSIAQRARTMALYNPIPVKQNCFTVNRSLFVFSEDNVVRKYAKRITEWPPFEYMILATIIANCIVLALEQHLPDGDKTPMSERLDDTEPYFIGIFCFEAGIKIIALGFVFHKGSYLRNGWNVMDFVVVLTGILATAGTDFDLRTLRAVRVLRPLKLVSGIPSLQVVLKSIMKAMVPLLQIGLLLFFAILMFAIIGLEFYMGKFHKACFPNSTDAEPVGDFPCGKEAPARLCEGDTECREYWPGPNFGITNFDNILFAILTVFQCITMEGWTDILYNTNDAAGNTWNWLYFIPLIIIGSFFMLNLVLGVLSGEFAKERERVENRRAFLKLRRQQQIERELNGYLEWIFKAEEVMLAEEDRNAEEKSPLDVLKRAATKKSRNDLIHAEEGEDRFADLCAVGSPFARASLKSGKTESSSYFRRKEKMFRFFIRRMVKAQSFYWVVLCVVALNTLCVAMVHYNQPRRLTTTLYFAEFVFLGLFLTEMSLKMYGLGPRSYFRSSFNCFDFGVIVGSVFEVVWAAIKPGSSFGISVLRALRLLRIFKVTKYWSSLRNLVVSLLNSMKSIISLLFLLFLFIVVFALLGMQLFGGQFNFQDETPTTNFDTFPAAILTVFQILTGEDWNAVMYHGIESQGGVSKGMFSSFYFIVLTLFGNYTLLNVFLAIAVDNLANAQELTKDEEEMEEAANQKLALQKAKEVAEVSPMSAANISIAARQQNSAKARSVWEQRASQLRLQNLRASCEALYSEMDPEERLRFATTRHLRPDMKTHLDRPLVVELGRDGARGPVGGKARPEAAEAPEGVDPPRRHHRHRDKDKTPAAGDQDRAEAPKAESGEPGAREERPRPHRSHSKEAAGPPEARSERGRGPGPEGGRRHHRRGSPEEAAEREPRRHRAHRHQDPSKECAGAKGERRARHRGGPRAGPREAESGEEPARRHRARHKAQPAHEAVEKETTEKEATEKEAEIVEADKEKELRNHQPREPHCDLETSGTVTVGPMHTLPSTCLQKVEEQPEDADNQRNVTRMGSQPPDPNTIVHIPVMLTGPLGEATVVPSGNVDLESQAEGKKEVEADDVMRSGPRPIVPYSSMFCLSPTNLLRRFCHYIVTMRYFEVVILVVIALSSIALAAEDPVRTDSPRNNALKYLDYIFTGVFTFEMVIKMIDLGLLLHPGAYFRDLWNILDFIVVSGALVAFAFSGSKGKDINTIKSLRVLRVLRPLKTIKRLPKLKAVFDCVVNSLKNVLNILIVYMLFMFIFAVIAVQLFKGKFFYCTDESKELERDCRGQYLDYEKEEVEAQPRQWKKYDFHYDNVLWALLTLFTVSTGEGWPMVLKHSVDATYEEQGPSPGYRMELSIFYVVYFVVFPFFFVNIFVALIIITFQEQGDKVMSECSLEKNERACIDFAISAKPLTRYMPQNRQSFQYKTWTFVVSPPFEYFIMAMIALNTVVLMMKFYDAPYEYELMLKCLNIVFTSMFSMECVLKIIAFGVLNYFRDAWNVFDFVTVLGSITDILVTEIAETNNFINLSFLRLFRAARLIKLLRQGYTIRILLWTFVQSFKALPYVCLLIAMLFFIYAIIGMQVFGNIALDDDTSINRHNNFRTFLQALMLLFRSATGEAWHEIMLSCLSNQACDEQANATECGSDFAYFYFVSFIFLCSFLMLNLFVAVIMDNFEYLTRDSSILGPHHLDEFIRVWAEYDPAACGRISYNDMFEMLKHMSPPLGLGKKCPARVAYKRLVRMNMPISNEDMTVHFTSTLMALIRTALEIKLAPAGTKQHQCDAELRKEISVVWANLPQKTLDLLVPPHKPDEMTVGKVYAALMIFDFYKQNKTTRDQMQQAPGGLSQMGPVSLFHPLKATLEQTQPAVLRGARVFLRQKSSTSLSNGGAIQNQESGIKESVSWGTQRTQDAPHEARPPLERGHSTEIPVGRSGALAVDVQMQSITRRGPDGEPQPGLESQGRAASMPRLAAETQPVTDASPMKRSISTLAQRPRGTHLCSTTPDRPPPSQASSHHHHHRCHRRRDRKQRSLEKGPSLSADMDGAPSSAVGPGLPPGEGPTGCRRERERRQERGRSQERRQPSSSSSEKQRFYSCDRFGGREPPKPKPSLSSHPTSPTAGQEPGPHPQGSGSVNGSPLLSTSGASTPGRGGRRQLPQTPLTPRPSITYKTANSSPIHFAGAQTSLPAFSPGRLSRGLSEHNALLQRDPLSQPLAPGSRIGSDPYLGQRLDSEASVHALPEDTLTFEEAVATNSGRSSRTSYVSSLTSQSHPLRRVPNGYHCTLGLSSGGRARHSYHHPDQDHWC
Sequence of human Cav2.2 (P54289 25-951 partner limits assumed): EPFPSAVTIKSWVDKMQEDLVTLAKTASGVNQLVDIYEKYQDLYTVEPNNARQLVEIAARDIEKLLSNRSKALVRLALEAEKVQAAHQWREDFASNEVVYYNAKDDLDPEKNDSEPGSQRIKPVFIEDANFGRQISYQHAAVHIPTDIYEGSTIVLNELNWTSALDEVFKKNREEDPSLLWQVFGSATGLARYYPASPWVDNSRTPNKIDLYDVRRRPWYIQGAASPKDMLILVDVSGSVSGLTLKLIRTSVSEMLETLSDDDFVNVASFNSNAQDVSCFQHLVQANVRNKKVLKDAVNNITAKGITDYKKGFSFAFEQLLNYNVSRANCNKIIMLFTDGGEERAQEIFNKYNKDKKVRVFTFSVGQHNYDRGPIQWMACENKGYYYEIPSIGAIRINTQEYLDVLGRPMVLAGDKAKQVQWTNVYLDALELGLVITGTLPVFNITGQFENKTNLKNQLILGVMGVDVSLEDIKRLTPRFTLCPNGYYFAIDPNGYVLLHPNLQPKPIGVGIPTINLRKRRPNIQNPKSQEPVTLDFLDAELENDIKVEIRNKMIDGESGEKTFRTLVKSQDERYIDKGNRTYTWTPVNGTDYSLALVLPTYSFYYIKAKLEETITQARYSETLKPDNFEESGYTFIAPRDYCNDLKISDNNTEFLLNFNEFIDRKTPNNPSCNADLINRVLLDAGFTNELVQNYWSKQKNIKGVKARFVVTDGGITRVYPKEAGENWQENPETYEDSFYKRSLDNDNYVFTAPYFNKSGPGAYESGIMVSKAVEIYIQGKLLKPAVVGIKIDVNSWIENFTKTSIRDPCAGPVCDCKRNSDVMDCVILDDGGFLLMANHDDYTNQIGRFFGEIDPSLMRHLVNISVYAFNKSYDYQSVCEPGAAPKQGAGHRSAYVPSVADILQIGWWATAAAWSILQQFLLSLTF
Sequence of human Cav2.2 (P54289 952-1103 partner limits assumed): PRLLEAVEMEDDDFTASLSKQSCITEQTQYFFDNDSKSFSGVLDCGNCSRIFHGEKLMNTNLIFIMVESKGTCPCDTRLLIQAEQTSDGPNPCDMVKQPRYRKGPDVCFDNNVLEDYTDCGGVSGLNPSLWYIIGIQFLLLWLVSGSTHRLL
Sequence of human Cav2.2 (P54284 whole entry partner): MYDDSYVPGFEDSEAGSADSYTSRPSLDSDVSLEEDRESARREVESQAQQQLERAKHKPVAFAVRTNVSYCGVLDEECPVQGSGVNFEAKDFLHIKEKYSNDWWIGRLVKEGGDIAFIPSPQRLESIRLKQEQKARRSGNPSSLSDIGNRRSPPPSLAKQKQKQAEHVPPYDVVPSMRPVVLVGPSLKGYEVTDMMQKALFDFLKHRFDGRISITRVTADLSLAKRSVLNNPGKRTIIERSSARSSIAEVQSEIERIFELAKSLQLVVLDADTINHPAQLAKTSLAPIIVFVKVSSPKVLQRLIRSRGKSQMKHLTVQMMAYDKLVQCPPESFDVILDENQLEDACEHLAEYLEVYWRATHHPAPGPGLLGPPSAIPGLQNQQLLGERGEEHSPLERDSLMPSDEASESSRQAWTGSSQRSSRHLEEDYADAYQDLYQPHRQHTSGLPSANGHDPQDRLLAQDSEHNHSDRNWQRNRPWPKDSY

The target of the experiment is human Cav2.2 (Homo sapiens, UniProt Q00975). Nature of the experiment: Assessment of calcium channel activity using FLIPR (Ca2+ influx in IMR32 cells). The class given is cell-based. The following applies: IMR32 cells endogenously expressing human Cav2.2; 60 minute pre-incubation; 2 μM nifedipine; depolarized with 80 mM KCl, 5 mM CaCl2. The procedure, abridged:
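FLIPR measured Ca2+ influx triggered by 80 mM KCl depolarization together with a step to 5 mM external CaCl2. Percent inhibition relative to uninhibited activity was fitted sigmoidally for IC50.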
For the molecule `O=C(CN1CCC(c2ccc(F)cc2)(c2ccc(F)cc2)C1=O)NC1CCN(Cc2cccc(C(F)(F)F)c2)CC1` [Example 208, 2-[3,3-bis(4-fluorophenyl)-2-oxopyrrolidin-1-yl]-N-{1-[3-(trifluoromethyl)benzyl]piperidin-4-yl}acetamide], the IC50 is 2.4 µM.

Take `O=C(CN1CCCC(c2ccccc2)C1=O)N1CCN(Cc2cccc(C(F)(F)F)c2)CC1` (stereo not drawn) [Example 93, 1-(2-oxo-2-{4-[3-(trifluoromethyl)benzyl]piperazin-1-yl}ethyl)-3-phenylpiperidin-2-one]: the IC50 was 5.9 µM.

As to `O=C1N(Cc2nc(-c3ccc(C(F)(F)F)cc3)no2)CCCC1(c1ccc(F)cc1)c1ccc(F)cc1` [Example 191, 3,3-bis(4-fluorophenyl)-1-({3-[4-(trifluoromethyl)phenyl]-1,2,4-oxadiazol-5-yl}methyl)piperidin-2-one], the IC50 stood at 6.87 µM.

As to `O=C(CN1CCCC(c2ccc(F)cc2)(c2ccc(F)cc2)C1=O)N1CCC(c2ccccc2)(c2ccccc2)CC1` [Example 173, 1-[2-(4,4-diphenylpiperidin-1-yl)-2-oxoethyl]-3,3-bis(4-fluorophenyl)piperidin-2-one], the IC50 was 3.88 µM.

With `O=C1N(CCCc2nc(-c3ccc(C(F)(F)F)cc3)no2)CCC1(c1ccccc1)c1ccccc1` [Example 155, 3,3-diphenyl-1-(3-{3-[4-(trifluoromethyl)phenyl]-1,2,4-oxadiazol-5-yl}propyl)pyrrolidin-2-one], the IC50 was 4.37 µM.

For `O=C1C(c2ccc(F)cc2)CCN1Cc1nc(-c2ccc(C(F)(F)F)nc2)no1` (stereo not drawn) [Example 238, 3-(4-fluorophenyl)-1-({3-[6-(trifluoromethyl)pyridin-3-yl]-1,2,4-oxadiazol-5-yl}methyl)pyrrolidin-2-one], the concentration for half-maximal inhibition (IC50) worked out at 12.4 µM.

Regarding `O=C(CN1CCC(c2ccccc2)(c2ccccc2)C1=O)N1CCC(C(c2ccccc2)c2ccccc2)CC1` [Example 30, 1-[2-(4-benzhydrylpiperidin-1-yl)-2-oxoethyl]-3,3-diphenylpyrrolidin-2-one], the IC50 is 0.65 µM.

With `O=C1C(c2ccc(F)cc2)CCN1Cc1nc(-c2ccc(C(F)(F)F)cc2)no1` (stereo not drawn) [Example 189, 3-(4-fluorophenyl)-1-({3-[4-(trifluoromethyl)phenyl]-1,2,4-oxadiazol-5-yl}methyl)pyrrolidin-2-one], the IC50 is 5.82 µM.

`O=C1N(CCN2CCc3ccc(C(F)(F)F)cc3C2)CCC1(c1ccccc1)c1ccccc1` [Example 67, 3,3-diphenyl-1-{2-[7-(trifluoromethyl)-3,4-dihydroisoquinolin-2(1H)-yl]ethyl}pyrrolidin-2-one]: the IC50 is 3.44 µM.

Consider `CN(CCc1ccccc1)CCN1CCCC(c2ccc(F)cc2)(c2ccc(F)cc2)C1=O` [Example 122, 3,3-bis(4-fluorophenyl)-1-{2-[methyl(2-phenylethyl)amino]ethyl}piperidin-2-one], for which the IC50 came out at 2.35 µM.

Take `O=C(CN1CCC(c2ccc(F)cc2)(c2ccc(F)cc2)C1=O)NC1CN(Cc2ccccc2)C1` [Example 242, N-(1-benzylazetidin-3-yl)-2-[3,3-bis(4-fluorophenyl)-2-oxopyrrolidin-1-yl]acetamide]: the IC50 is 3.17 µM.

With `O=C1N(S(=O)(=O)c2cccc(C(F)(F)F)c2)CCC1(c1ccccc1)c1ccccc1` [Example 144, 3,3-diphenyl-1-{[3-(trifluoromethyl)phenyl]sulfonyl}pyrrolidin-2-one], the IC50 came to 5.48 µM.

With `COc1ccc(C2(c3ccc(OC)cc3)CCCN(CCN(C)CCc3cccc(OC)c3)C2=O)cc1` [Example 124, 3,3-bis(4-methoxyphenyl)-1-{2-[[2-(3-methoxyphenyl)ethyl](methyl)amino]ethyl}piperidin-2-one], the IC50 was determined as 1.9 µM.

As to `COc1cccc(CCN(C)CCN2CCCC(c3ccc(F)cc3)(c3ccc(F)cc3)C2=O)c1` [Example 120, 3,3-bis(4-fluorophenyl)-1-{2-[[2-(3-methoxyphenyl)ethyl](methyl)amino]ethyl}piperidin-2-one], the IC50 is 1.67 µM.

`O=C(CN1CCC(c2ccc(F)cc2)C1=O)N1CCc2ccccc2C1` (stereo not drawn) [Example 253, 1-[2-(3,4-dihydroisoquinolin-2(1H)-yl)-2-oxoethyl]-3-(4-fluorophenyl)pyrrolidin-2-one]: the IC50 amounted to 10.6 µM.

As to `COc1ccc(C2(c3ccc(OC)cc3)CCCN(CCCN(C)CCc3cccc(OC)c3)C2=O)cc1` [Example 125, 3,3-bis(4-methoxyphenyl)-1-{3-[[2-(3-methoxyphenyl)ethyl](methyl)amino]propyl}piperidin-2-one], the IC50 amounted to 1.68 µM.

`O=C1[C@@H](c2ccc(F)cc2)CCN1Cc1nc(-c2ccc(C(F)(F)F)cc2)no1` (single isomer, unassigned) [Example 237]: the IC50 amounted to 2.81 µM.

As for `O=C(CN1CCCC(c2ccccc2)(c2ccccc2)C1=O)N1CCC(=C(c2ccc(F)cc2)c2ccc(F)cc2)CC1` [Example 171, 1-(2-{4-[bis(4-fluorophenyl)methylene]piperidin-1-yl}-2-oxoethyl)-3,3-diphenylpiperidin-2-one], the IC50 came to 2.45 µM.

Turning to `O=C(CN1CCC(c2ccc(F)cc2)(c2ccc(F)cc2)C1=O)Nc1ccc(C(F)(F)F)cc1` [Example 218, 2-[3,3-bis(4-fluorophenyl)-2-oxopyrrolidin-1-yl]-N-[4-(trifluoromethyl)phenyl]acetamide], the IC50 amounted to 6.8 µM.

Regarding `O=C(CN1CCC(c2ccccc2)(c2ccccc2)C1=O)N1CCNC(Cc2ccccc2)C1` (stereo not drawn) [Example 18, 1-[2-(3-benzylpiperazin-1-yl)-2-oxoethyl]-3,3-diphenylpyrrolidin-2-one], the IC50 turned out to be 2.65 µM.

In the case of `O=C(CN1CCC(c2ccc(F)cc2)C1=O)N1Cc2ccc(F)cc2C1` (stereo not drawn) [Example 227, 1-[2-(5-fluoro-1,3-dihydro-2H-isoindol-2-yl)-2-oxoethyl]-3-(4-fluorophenyl)pyrrolidin-2-one], the IC50 was 12.1 µM.

Take `O=C(CN1CCC(c2ccccc2)(c2ccccc2)C1=O)NCC(c1ccccc1)c1ccccc1` [Example 15, N-(2,2-diphenylethyl)-2-(2-oxo-3,3-diphenylpyrrolidin-1-yl)acetamide]: the IC50 was 0.87 µM.

As for `O=C(CN1CCC(c2ccccc2)(c2ccccc2)C1=O)Nc1ccc(Cl)cn1` [Example 5, N-(5-chloropyridin-2-yl)-2-(2-oxo-3,3-diphenylpyrrolidin-1-yl)acetamide], the IC50 amounted to 4.51 µM.

On to `O=C(CN1CCCC(c2ccccc2)C1=O)N1CCc2ccc(C(F)(F)F)cc2C1` (stereo not drawn) [Example 96, 1-{2-oxo-2-[7-(trifluoromethyl)-3,4-dihydroisoquinolin-2(1H)-yl]ethyl}-3-phenylpiperidin-2-one], for which the IC50 is 8.9 µM.

As to `O=C1N(CCN2CCN(c3ncccn3)CC2)CCCC1(c1ccccc1)c1ccccc1` [Example 134, 3,3-diphenyl-1-[2-(4-pyrimidin-2-ylpiperazin-1-yl)ethyl]piperidin-2-one], the IC50 was determined as 6.48 µM.

As for `O=C1N(Cc2nc(-c3ccc(C(F)(F)F)cc3)no2)CCCC1(c1ccccc1)c1ccccc1` [Example 99, 3,3-diphenyl-1-({3-[4-(trifluoromethyl)phenyl]-1,2,4-oxadiazol-5-yl}methyl)piperidin-2-one], the IC50 was found to be 8.65 µM.

As to `O=C(CN1CCCC(c2ccccc2)(c2ccccc2)C1=O)N1CCC(c2ccc(C(F)(F)F)cc2)CC1` [Example 245, 1-(2-oxo-2-{4-[4-(trifluoromethyl)phenyl]piperidin-1-yl}ethyl)-3,3-diphenylpiperidin-2-one], the IC50 was found to be 4.48 µM.

`CC(C)COc1ccc(-c2noc(CN3CCCC(c4ccccc4)(c4ccccc4)C3=O)n2)cc1` [Example 209, 1-{[3-(4-isobutoxyphenyl)-1,2,4-oxadiazol-5-yl]methyl}-3,3-diphenylpiperidin-2-one]: the IC50 came out at 10.7 µM.

In the case of `O=C1N(Cc2nc(-c3ccc(Cl)cc3)no2)CCC1(c1ccccc1)c1ccccc1` [Example 193, 1-{[3-(4-chlorophenyl)-1,2,4-oxadiazol-5-yl]methyl}-3,3-diphenylpyrrolidin-2-one], the concentration for half-maximal inhibition (IC50) was found to be 4.67 µM.

`O=C1N(S(=O)(=O)c2cccc(C(F)(F)F)c2)CCC1(c1ccc(F)cc1)c1ccc(F)cc1` [Example 145, 3,3-bis(4-fluorophenyl)-1-{[3-(trifluoromethyl)phenyl]sulfonyl}pyrrolidin-2-one]: the IC50 came out at 9.64 µM.

Turning to `O=C(CN1CCC(c2ccccc2)(c2ccccc2)C1=O)NC(c1ccccc1)C1CC1` (stereo not drawn) [Example 9, N-[cyclopropyl(phenyl)methyl]-2-(2-oxo-3,3-diphenylpyrrolidin-1-yl)acetamide], the IC50 was found to be 2.1 µM.

Consider `O=C(CN1CCCC(c2ccccc2)(c2ccccc2)C1=O)N1CCN(Cc2ccc(Cl)cc2Cl)CC1` [Example 169, 1-{2-[4-(2,4-dichlorobenzyl)piperazin-1-yl]-2-oxoethyl}-3,3-diphenylpiperidin-2-one], for which the IC50 was determined as 1.8 µM.

On to `O=C(CN1CCCC(c2ccccc2)(c2ccccc2)C1=O)N1CCOC(c2ccccc2)(c2ccccc2)C1` [Example 69, 1-[2-(2,2-diphenylmorpholin-4-yl)-2-oxoethyl]-3,3-diphenylpiperidin-2-one], for which the IC50 was 6.05 µM.

With `C[C@@H]1CN(C(=O)c2cccc(S(=O)(=O)N3CCC(c4ccccc4)(c4ccccc4)C3=O)c2)C[C@H](C)O1` [Example 147, 1-[(3-{[cis-2,6-dimethylmorpholin-4-yl]carbonyl}phenyl)sulfonyl]-3,3-diphenylpyrrolidin-2-one], the IC50 stood at 1.84 µM.

Take `O=C1N(CCCN2CCN(c3cccc(C(F)(F)F)c3)CC2)CCCC1(c1ccccc1)c1ccccc1` [Example 140, 3,3-diphenyl-1-(3-{4-[3-(trifluoromethyl)phenyl]piperazin-1-yl}propyl)piperidin-2-one]: the IC50 stood at 1.25 µM.

For the molecule `COc1cc(CN2CCN(CCN3CCC(c4ccc(F)cc4)(c4ccc(F)cc4)C3=O)CC2)cc(OC)c1OC` [Example 109, 3,3-bis(4-fluorophenyl)-1-{2-[4-(3,4,5-trimethoxybenzyl)piperazin-1-yl]ethyl}pyrrolidin-2-one], the IC50 is 1.76 µM.
